The record followed here is patent publication US20110166121A1 (LG LIFE SCIENCES LTD., priority 2008, published 2011).

Where a name gives a salt, the structure may show the parent alone.

For the test, the system named is Human platelet aggregation caused by ADP. As to the kind of experiment: Inhibition of ADP-induced platelet aggregation (Mimic-human PRP). It is filed as cell-based. The settings on record: 20 μM ADP, human platelet concentrate diluted with PPP, absorption at 595 nm. Summed up: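 Ki came from non-linear sigmoidal fits of inhibition, measured as the 3-min rise in absorbance at 595 nm after 20 μM ADP, relative to 0/20 μM ADP controls. Platelets (3–4×10^8/mL in PPP-diluted human PRP) were exposed to 0.01–30 μM compound for 20 min at room temperature beforehand.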
In the case of `CCCCNC(=O)[C@H]1CCN(c2nc(N3CCn4c(nnc4C(F)(F)F)C3)c3cc(CCC)sc3n2)C1` [Example 9-62, (S)-1-[6-Propyl-4-(3-trifluoromethyl-5,6-dihydro-8H-[1,2,4]triazolo[4,3-a]pyrazin-7-yl)-thieno[2,3-d]pyrimidin-2-yl]-pyrrolidine-3-carboxylic acid butylamide], the Ki (in general, a dissociation constant, usually derived from enzyme kinetics or from competition with a known ligand) came to 0.4 µM.

`CCCc1cc2c(N3CCn4c(nnc4C(F)(F)F)C3)nc(N3CCNC3=O)nc2s1` [Example 9-33, 1-[6-Propyl-4-(3-trifluoromethyl-5,6-dihydro-8H-[1,2,4]triazolo[4,3-a]pyrazin-7-yl)-thieno[2,3-d]pyrimidin-2-yl]-imidazolidin-2-one] showed a Ki of 0.041 µM. Compared with the last molecule, the Ki is about 9.8-fold lower.

Regarding `CCCc1cc2c(N3CCn4c(nnc4C(F)(F)F)C3)nc(OCCC(=O)NN)nc2s1` [Example 9-73, 3-[6-Propyl-4-(3-trifluoromethyl-5,6-dihydro-8H-[1,2,4]triazolo[4,3-a]pyrazin-7-yl)-thieno[2,3-d]pyrimidin-2-yloxy]-propionic acid hydrazide], the affinity, expressed as Ki, was 0.016 µM.

Regarding `CCCc1cc2c(N3CCn4c(nnc4C(F)(F)F)C3)nc(OCCN(C)C=O)nc2s1` [Example 9-93, N-Methyl-N-{2-[6-propyl-4-(3-trifluoromethyl-5,6-dihydro-8H-[1,2,4]triazolo[4,3-a]pyrazin-7-yl)-thieno[2,3-d]pyrimidin-2-yloxy]-ethyl}-formamide], the Ki is 0.052 µM.

Regarding `CCCc1cc2c(N3CCn4c(nnc4C(F)(F)F)C3)nc(OCC(C)(C)NC(C)=O)nc2s1` [Example 9-79, N-{1,1-Dimethyl-2-[6-propyl-4-(3-trifluoromethyl-5,6-dihydro-8H-[1,2,4]triazolo[4,3-a]pyrazin-7-yl)-thieno[2,3-d]pyrimidin-2-yloxy]-ethyl}-acetamide], the Ki is 0.0034 µM.

In turn, `CCCc1cc2c(N3CCn4c(nnc4C(F)(F)F)C3)nc(N3CC[C@H](CNC(=O)C(C)C)C3)nc2s1` [Example 8-6, N-{(R)-1-[6-Propyl-4-(3-trifluoromethyl-5,6-dihydro-8H-[1,2,4]triazolo[4,3-a]pyrazin-7-yl)-thieno[2,3-d]pyrimidin-2-yl]-pyrrolidin-3-ylmethyl}-isobutyramide] returned a Ki of 0.12 µM.

`CCCc1cc2c(N3CCn4c(nnc4C(F)(F)F)C3)nc(OCCNC(=O)N3CCCC3)nc2s1` [Example 9-26, Pyrrolidine-1-carboxylic Acid {2-[6-propyl-4-(3-trifluoromethyl-5,6-dihydro-8H-[1,2,4]triazolo[4,3-a]pyrazin-7-yl)-thieno[2,3-d]pyrimidin-2-yloxy]-ethyl}-amide] gave a Ki of 0.016 µM.

Take `CCCc1cc2c(N3CCn4c(nnc4C(F)(F)F)C3)nc(OCCNC(=O)C(F)(F)F)nc2s1` [Example 3-61, 2,2,2-Trifluoro-N-{2-[6-propyl-4-(3-trifluoromethyl-5,6-dihydro-8H-[1,2,4]triazolo[4,3-a]pyrazin-7-yl)-thieno[2,3-d]pyrimidin-2-yloxy]-ethyl}-acetamide]: affinity was put at a Ki of 0.0054 µM.

On to `CCCc1cc2c(N3CCn4c(nnc4C(F)(F)F)C3)nc(OC(C)CNC=O)nc2s1` (centres unmarked) [Example 9-74, N-{2-[6-Propyl-4-(3-trifluoromethyl-5,6-dihydro-8H-[1,2,4]triazolo[4,3-a]pyrazin-7-yl)-thieno[2,3-d]pyrimidin-2-yloxy]-propyl}-formamide], for which the Ki turned out to be 0.0038 µM.

The molecule `CCCc1cc2c(N3CCn4c(nnc4C(F)(F)F)C3)nc(-c3nc(C(=O)O)cs3)nc2s1` [Example 4-46, 2-[6-Propyl-4-(3-trifluoromethyl-5,6-dihydro-8H-[1,2,4]triazolo[4,3-a]pyrazin-7-yl)thieno[2,3-d]pyrimidin-2-yl]thiazole-4-carboxylic acid] gave a Ki of 0.025 µM.

For the molecule `CCCc1cc2c(N3CCn4c(nnc4C(F)(F)F)C3)nc(N3CCN(C(=O)C(C)C)CC3)nc2s1` [Example 7-16, Hydrochloric acid salt of 2-Methyl-1-{4-[6-propyl-4-(3-trifluoromethyl-5,6-dihydro-8H-[1,2,4]triazolo[4,3-a]pyrazin-7-yl)-thieno[2,3-d]pyrimidin-2-yl]-piperazin-1-yl}-propan-1-one], the affinity corresponds to a Ki of 0.59 µM.
